What was measured:
Type in all cases: in vivo
[1] = test system: rice (Oryza sativa); test: Test B flooded paddy test, visual plant response rating 0-100; settings: 250 g ai/ha, Flood, applied to paddy water, evaluated after 13 days
How it was run: (§1)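 Visual evaluation after 13 days. Water-applied treatment, 3 cm flood depth held constant, plants at 2-leaf stage at treatment.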

[2] = test system: ducksalad (Heteranthera limosa); test: as above; settings: 250 g ai/ha, Flood, applied to paddy water, evaluated after 13 days
How it was run: as §1

[3] = test system: sedge, umbrella (small-flower umbrella sedge, Cyperus difformis); test: as above; settings: 250 g ai/ha, Flood, applied to paddy water, evaluated after 13 days
How it was run: as §1

[4] = test system: barnyardgrass (Echinochloa crusgalli); test: as above; settings: 250 g ai/ha, Flood, applied to paddy water, evaluated after 13 days
How it was run: as §1

[5] = test system: kochia (Bassia scoparia); test: Test A postemergence application, visual injury rating 0-100; settings: for Kochia plant response rating (0 to 100 scale): Postemergence
How it was run: (§2)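 Plants were grown in a loam soil-sand blend and treated with test chemical in a non-phytotoxic solvent mixture containing surfactant, either sprayed on soil preemergence or applied postemergence to 2-10 cm plants. After 10 days in a greenhouse, injury was scored visually against untreated controls, 0 meaning no effect and 100 complete control.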

[6] = test system: corn (Zea mays); test: as above; settings: for Corn plant response rating (0 to 100 scale): Postemergence
How it was run: as §2

[7] = test system: horseweed (Erigeron canadensis); test: as above; settings: for Horseweed plant response rating (0 to 100 scale): Postemergence
How it was run: as §2

[8] = test system: ragweed (common ragweed, Ambrosia artemisiifolia); test: as above; settings: for Ragweed plant response rating (0 to 100 scale): Postemergence
How it was run: as §2

[9] = test system: ryegrass, Italian (italian ryegrass, Lolium multiflorum); test: as above; settings: for Ryegrass, Italian plant response rating (0 to 100 scale): Postemergence
How it was run: as §2

[10] = test system: barnyardgrass (Echinochloa crus-galli); test: as above; settings: for Barnyardgrass plant response rating (0 to 100 scale): Postemergence
How it was run: as §2

[11] = test system: oat, wild (wild oat, Avena fatua); test: as above; settings: for Oat, Wild plant response rating (0 to 100 scale): Postemergence
How it was run: as §2

[12] = test system: green foxtail (Setaria viridis); test: as above; settings: for Foxtail, Green plant response rating (0 to 100 scale): Postemergence
How it was run: as §2

[13] = test system: wheat (Triticum aestivum); test: as above; settings: for Wheat plant response rating (0 to 100 scale): Postemergence
How it was run: as §2

[14] = test system: palmer (palmer amaranth, palmer pigweed, Amaranthus palmeri); test: as above; settings: for Amaranth, Palmer / Pigweed, Palmer plant response rating (0 to 100 scale): Postemergence
How it was run: as §2

[15] = test system: soybean (Glycine max); test: as above; settings: for Soybean plant response rating (0 to 100 scale): Postemergence
How it was run: as §2

[16] = test system: blackgrass (Alopecurus myosuroides); test: as above; settings: for Blackgrass plant response rating (0 to 100 scale): Postemergence
How it was run: as §2

[17] = test system: galium (catchweed bedstraw, Galium aparine); test: as above; settings: for Galium plant response rating (0 to 100 scale): Postemergence
How it was run: as §2

[18] = test system: kochia (Bassia scoparia); test: Test A preemergence soil spray, visual injury rating 0-100; settings: 10 days, 0 = no effect, 100 = complete control; for Kochia plant response rating (0-100): 31 g ai/ha; for Kochia plant response rating (0 to 100 scale): 125 g ai/ha
How it was run: as §2

[19] = test system: corn (Zea mays); test: as above; settings: 10 days, 0 = no effect, 100 = complete control; for Corn plant response rating (0-100): 31 g ai/ha; for Corn plant response rating (0 to 100 scale): 125 g ai/ha
How it was run: as §2

[20] = test system: ragweed (common ragweed, Ambrosia artemisiifolia); test: as above; settings: 10 days, 0 = no effect, 100 = complete control; for Ragweed plant response rating (0-100): 31 g ai/ha; for Ragweed plant response rating (0 to 100 scale): 125 g ai/ha
How it was run: as §2

[21] = test system: ryegrass, Italian (italian ryegrass, Lolium multiflorum); test: as above; settings: 10 days, 0 = no effect, 100 = complete control; for Ryegrass, Italian plant response rating (0-100): 31 g ai/ha; for Ryegrass, Italian plant response rating (0 to 100 scale): 125 g ai/ha
How it was run: as §2

[22] = test system: barnyardgrass (Echinochloa crus-galli); test: as above; settings: 10 days, 0 = no effect, 100 = complete control; for Barnyardgrass plant response rating (0-100): 31 g ai/ha; for Barnyardgrass plant response rating (0 to 100 scale): 125 g ai/ha
How it was run: as §2

[23] = test system: oat, wild (wild oat, Avena fatua); test: as above; settings: 10 days, 0 = no effect, 100 = complete control; for Oat, Wild plant response rating (0-100): 31 g ai/ha; for Oat, Wild plant response rating (0 to 100 scale): 125 g ai/ha
How it was run: as §2

[24] = test system: green foxtail (Setaria viridis); test: as above; settings: 10 days, 0 = no effect, 100 = complete control; for Foxtail, Green plant response rating (0-100): 31 g ai/ha; for Foxtail, Green plant response rating (0 to 100 scale): 125 g ai/ha
How it was run: as §2

[25] = test system: wheat (Triticum aestivum); test: as above; settings: 10 days, 0 = no effect, 100 = complete control; for Wheat plant response rating (0-100): 31 g ai/ha; for Wheat plant response rating (0 to 100 scale): 125 g ai/ha
How it was run: as §2

[26] = test system: palmer (palmer amaranth, palmer pigweed, Amaranthus palmeri); test: as above; settings: 10 days, 0 = no effect, 100 = complete control; for Amaranth, Palmer plant response rating (0-100): 31 g ai/ha; for Amaranth, Palmer plant response rating (0 to 100 scale): 125 g ai/ha
How it was run: as §2

[27] = test system: soybean (Glycine max); test: as above; settings: 10 days, 0 = no effect, 100 = complete control; for Soybean plant response rating (0-100): 31 g ai/ha; for Soybean plant response rating (0 to 100 scale): 125 g ai/ha
How it was run: as §2

[28] = test system: blackgrass (Alopecurus myosuroides); test: as above; settings: 10 days, 0 = no effect, 100 = complete control; for Blackgrass plant response rating (0-100): 31 g ai/ha; for Blackgrass plant response rating (0 to 100 scale): 125 g ai/ha
How it was run: as §2

[29] = 31 g ai/ha, postemergence, 10 days, 0 = no effect, 100 = complete control
[30] = 125 g ai/ha, 10 days, 0 is no effect, 100 is complete control
[31] = 31 g ai/ha, greenhouse 10 days, 0 no effect, 100 complete control

CC(C)OC(=O)C1CC(NC(=O)C2(C)CN(c3cc(F)cc(F)c3)C(=O)O2)CO1 (centres unmarked) [Compound 32]
10: Corn plant response rating (0 to 100 scale) [19]
100: Blackgrass plant response rating (0 to 100 scale) [16, 30]
0: Plant response rating, Rice (0 to 100 scale, 0 is no effect and 100 is complete control) [1] | Plant response rating, Ducksalad (0 to 100 scale, 0 is no effect and 100 is complete control) [2] | Plant response rating, Sedge, Umbrella (0 to 100 scale, 0 is no effect and 100 is complete control) [3] | Plant response rating, Barnyardgrass (0 to 100 scale, 0 is no effect and 100 is complete control) [4] | Corn plant response rating (0-100) [6, 29] | Horseweed plant response rating (0-100) [7, 29] | Horseweed plant response rating (0 to 100 scale) [7, 30] | Barnyardgrass plant response rating (0-100) [10, 29] | Foxtail, Green plant response rating (0-100) [12, 29] | Amaranth, Palmer plant response rating (0-100) [14, 29] | Kochia plant response rating (0-100) [18] | Corn plant response rating (0-100) [19] | Ragweed plant response rating (0-100) [20] | Ragweed plant response rating (0 to 100 scale) [20] | Ryegrass, Italian plant response rating (0-100) [21] | Barnyardgrass plant response rating (0-100) [22] | Barnyardgrass plant response rating (0 to 100 scale) [22] | Oat, Wild plant response rating (0-100) [23] | Foxtail, Green plant response rating (0-100) [24] | Foxtail, Green plant response rating (0 to 100 scale) [24] | Wheat plant response rating (0-100) [25] | Amaranth, Palmer plant response rating (0-100) [26] | Amaranth, Palmer plant response rating (0 to 100 scale) [26] | Soybean plant response rating (0 to 100 scale) [27] | Blackgrass plant response rating (0-100) [28] | Blackgrass plant response rating (0 to 100 scale) [28]
20: Ryegrass, Italian plant response rating (0-100) [9, 29] | Soybean plant response rating (0-100) [15, 29] | Kochia plant response rating (0 to 100 scale) [18] | Soybean plant response rating (0-100) [27]
60: Soybean plant response rating (0 to 100 scale) [15, 30]
40: Kochia plant response rating (0-100) [5, 29] | Foxtail, Green plant response rating (0 to 100 scale) [12, 30] | Oat, Wild plant response rating (0 to 100 scale) [23]
50: Kochia plant response rating (0 to 100 scale) [5, 30] | Corn plant response rating (0 to 100 scale) [6, 30] | Ragweed plant response rating (0 to 100 scale) [8, 30] | Galium plant response rating (0-100) [17, 29]
80: Ryegrass, Italian plant response rating (0 to 100 scale) [9, 30] | Oat, Wild plant response rating (0-100) [11, 29] | Wheat plant response rating (0-100) [13, 29] | Blackgrass plant response rating (0-100) [16, 29] | Galium plant response rating (0 to 100 scale) [17, 30] | Ryegrass, Italian plant response rating (0 to 100 scale) [21]
70: Wheat plant response rating (0 to 100 scale) [25]
30: Ragweed plant response rating (0-100) [8, 29] | Amaranth, Palmer / Pigweed, Palmer plant response rating (0 to 100 scale) [14, 30]
90: Barnyardgrass plant response rating (0 to 100 scale) [10, 30] | Oat, Wild plant response rating (0 to 100 scale) [11, 30] | Wheat plant response rating (0 to 100 scale) [13, 30]

CC(=O)COC(=O)C1C=CC(NC(=O)C2(C)CN(c3cc(Cl)cc(Cl)c3)C(=O)O2)C1 (centres unmarked) [Compound 67]
100: Plant response rating, Sedge, Umbrella (0 to 100 scale, 0 is no effect and 100 is complete control) [3] | Corn plant response rating (0 to 100 scale) [6, 31] | Corn plant response rating (0 to 100 scale) [6, 30] | Barnyardgrass plant response rating (0 to 100 scale) [10, 31] | Barnyardgrass plant response rating (0 to 100 scale) [10, 30] | Blackgrass plant response rating (0 to 100 scale) [16, 30] | Amaranth, Palmer plant response rating (0 to 100 scale) [26]
80: Ragweed plant response rating (0 to 100 scale) [8, 30] | Amaranth, Palmer / Pigweed, Palmer plant response rating (0 to 100 scale) [14, 31] | Soybean plant response rating (0 to 100 scale) [15, 31] | Soybean plant response rating (0 to 100 scale) [15, 30] | Galium plant response rating (0 to 100 scale) [17, 31] | Kochia plant response rating (0 to 100 scale) [18] | Ryegrass, Italian plant response rating (0 to 100 scale) [21]
70: Kochia plant response rating (0 to 100 scale) [5, 31] | Kochia plant response rating (0 to 100 scale) [5, 30] | Horseweed plant response rating (0 to 100 scale) [7, 30] | Ryegrass, Italian plant response rating (0 to 100 scale) [9, 31] | Kochia plant response rating (0-100) [18] | Corn plant response rating (0 to 100 scale) [19] | Ryegrass, Italian plant response rating (0-100) [21] | Oat, Wild plant response rating (0 to 100 scale) [23] | Blackgrass plant response rating (0 to 100 scale) [28]
0: Corn plant response rating (0-100) [19] | Ragweed plant response rating (0-100) [20] | Soybean plant response rating (0-100) [27]
60: Ragweed plant response rating (0 to 100 scale) [20]
40: Oat, Wild plant response rating (0-100) [23]
98: Plant response rating, Ducksalad (0 to 100 scale, 0 is no effect and 100 is complete control) [2]
20: Foxtail, Green plant response rating (0-100) [24] | Blackgrass plant response rating (0-100) [28]
90: Ryegrass, Italian plant response rating (0 to 100 scale) [9, 30] | Oat, Wild plant response rating (0 to 100 scale) [11, 31] | Oat, Wild plant response rating (0 to 100 scale) [11, 30] | Foxtail, Green plant response rating (0 to 100 scale) [12, 31] | Foxtail, Green plant response rating (0 to 100 scale) [12, 30] | Wheat plant response rating (0 to 100 scale) [13, 31] | Wheat plant response rating (0 to 100 scale) [13, 30] | Amaranth, Palmer / Pigweed, Palmer plant response rating (0 to 100 scale) [14, 30] | Blackgrass plant response rating (0 to 100 scale) [16, 31] | Galium plant response rating (0 to 100 scale) [17, 30] | Barnyardgrass plant response rating (0 to 100 scale) [22] | Foxtail, Green plant response rating (0 to 100 scale) [24] | Wheat plant response rating (0 to 100 scale) [25] | Amaranth, Palmer plant response rating (0-100) [26]
50: Horseweed plant response rating (0 to 100 scale) [7, 31] | Ragweed plant response rating (0 to 100 scale) [8, 31] | Barnyardgrass plant response rating (0-100) [22]
30: Plant response rating, Rice (0 to 100 scale, 0 is no effect and 100 is complete control) [1] | Wheat plant response rating (0-100) [25] | Soybean plant response rating (0 to 100 scale) [27]
65: Plant response rating, Barnyardgrass (0 to 100 scale, 0 is no effect and 100 is complete control) [4]

Source: US20260285850A1, “SUBSTITUTED OXAZOLIDINONES AND IMIDAZOLINONES AS HERBICIDES” (FMC CORPORATION, priority 2023, published 2026)
